Data reported in PubChem BioAssay AID2060508 (Molecular Pharmacology Branch, DTP, NCI, 2025).

Each compound was assayed on 454973-116-R2-J3-PDC spheroids, viability, % test/control (assay: Anticancer human tumor 454973-116-R2-J3-PDC patient-derived pancreatic carcinoma cell line growth inhibition [GQUAD]). Conditions: second compound 0.316 µM; first compound 0.316 µM; hits give low values; spheroids with HUVEC and MSC.
Summary of the method: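 Tumor cells were grown as complex spheroids with HUVEC endothelial cells and mesenchymal stem cells as stroma. G-quadruplex stabilizers were combined with targeted agents over half-log dilutions from near the clinical Cmax, or from 10 microM.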
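Also: spheroids exposed to compounds for seven days; 100% = DMSO vehicle control viability.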

Question: How did the viability, T/C turn out when CC(C)(O)C1CCC(Nc2ccc3ncc(-c4cccc(C(F)(F)F)c4)n3n2)CC1 (stereo unspecified) + Cc1cnc(CNC(=O)c2c(=O)c3ccc(N4CCCN(C)CC4)nc3n3c2sc2ccccc23)cn1 was run?
Answer: 76.2%

Question: Cc1[nH]c2ccccc2c1CCNCc1ccc(/C=C/C(=O)NO)cc1 + Cc1cnc(CNC(=O)c2c(=O)c3ccc(N4CCCN(C)CC4)nc3n3c2sc2ccccc23)cn1 was tested. Which viability, T/C did it give?
Answer: 2.72%

Question: With O=C(NO)c1cnc(N2CCN(S(=O)(=O)c3ccc4ccccc4c3)CC2)nc1 + Cc1cnc(CNC(=O)c2c(=O)c3ccc(N4CCCN(C)CC4)nc3n3c2sc2ccccc23)cn1 as the compound, how does the viability, T/C read?
Answer: 23.6%

Same assay, conditions: second compound 0.316 µM; first compound 1 µM; hits give low values; spheroids with HUVEC and MSC

Question: For C#Cc1c(F)ccc2cc(O)cc(-c3ncc4c(N5CC6CCC(C5)N6)nc(OCC56CCCN5CC(F)C6)nc4c3F)c12 (stereo unspecified) + Cc1cnc(CNC(=O)c2c(=O)c3ccc(N4CCCN(C)CC4)nc3n3c2sc2ccccc23)cn1, which viability, T/C is on record?
Answer: 17.1%

Question: How did the viability, T/C turn out when C=CCn1c(=O)c2cnc(Nc3ccc(N4CCN(C)CC4)cc3)nc2n1-c1cccc(C(C)(C)O)n1 + Cc1cnc(CNC(=O)c2c(=O)c3ccc(N4CCCN(C)CC4)nc3n3c2sc2ccccc23)cn1 was run?
Answer: 18.1%

Question: For CC(C)(O)C1CCC(Nc2ccc3ncc(-c4cccc(C(F)(F)F)c4)n3n2)CC1 (stereo unspecified) + Cc1cnc(CNC(=O)c2c(=O)c3ccc(N4CCCN(C)CC4)nc3n3c2sc2ccccc23)cn1, which viability, T/C is on record?
Answer: 64.3%

Question: O=C(NO)c1cnc(N2CCN(S(=O)(=O)c3ccc4ccccc4c3)CC2)nc1 + Cc1cnc(CNC(=O)c2c(=O)c3ccc(N4CCCN(C)CC4)nc3n3c2sc2ccccc23)cn1 was tested. Which viability, T/C did it give?
Answer: 0.34%

Same assay, conditions: second compound 0.316 µM; first compound 3.16 µM; hits give low values; spheroids with HUVEC and MSC

Question: How did the viability, T/C turn out when C#Cc1c(F)ccc2cc(O)cc(-c3ncc4c(N5CC6CCC(C5)N6)nc(OCC56CCCN5CC(F)C6)nc4c3F)c12 (stereo unspecified) + Cc1cnc(CNC(=O)c2c(=O)c3ccc(N4CCCN(C)CC4)nc3n3c2sc2ccccc23)cn1 was run?
Answer: 14.3%

Question: With C=CCn1c(=O)c2cnc(Nc3ccc(N4CCN(C)CC4)cc3)nc2n1-c1cccc(C(C)(C)O)n1 + Cc1cnc(CNC(=O)c2c(=O)c3ccc(N4CCCN(C)CC4)nc3n3c2sc2ccccc23)cn1 as the compound, how does the viability, T/C read?
Answer: 9.06%

Question: How did the viability, T/C turn out when CC(C)(O)C1CCC(Nc2ccc3ncc(-c4cccc(C(F)(F)F)c4)n3n2)CC1 (stereo unspecified) + Cc1cnc(CNC(=O)c2c(=O)c3ccc(N4CCCN(C)CC4)nc3n3c2sc2ccccc23)cn1 was run?
Answer: 28.9%

Question: How did the viability, T/C turn out when O=C(NO)c1cnc(N2CCN(S(=O)(=O)c3ccc4ccccc4c3)CC2)nc1 + Cc1cnc(CNC(=O)c2c(=O)c3ccc(N4CCCN(C)CC4)nc3n3c2sc2ccccc23)cn1 was run?
Answer: 0.11%

Same assay, conditions: second compound 0.316 µM; first compound 10 µM; hits give low values; spheroids with HUVEC and MSC

Question: For C#Cc1c(F)ccc2cc(O)cc(-c3ncc4c(N5CC6CCC(C5)N6)nc(OCC56CCCN5CC(F)C6)nc4c3F)c12 (stereo unspecified) + Cc1cnc(CNC(=O)c2c(=O)c3ccc(N4CCCN(C)CC4)nc3n3c2sc2ccccc23)cn1, which viability, T/C is on record?
Answer: 11.4%

Question: For C=CCn1c(=O)c2cnc(Nc3ccc(N4CCN(C)CC4)cc3)nc2n1-c1cccc(C(C)(C)O)n1 + Cc1cnc(CNC(=O)c2c(=O)c3ccc(N4CCCN(C)CC4)nc3n3c2sc2ccccc23)cn1, which viability, T/C is on record?
Answer: 9.69%

Question: CC(C)(O)C1CCC(Nc2ccc3ncc(-c4cccc(C(F)(F)F)c4)n3n2)CC1 (stereo unspecified) + Cc1cnc(CNC(=O)c2c(=O)c3ccc(N4CCCN(C)CC4)nc3n3c2sc2ccccc23)cn1 was tested. Which viability, T/C did it give?
Answer: 32.1%

Question: For O=C(NO)c1cnc(N2CCN(S(=O)(=O)c3ccc4ccccc4c3)CC2)nc1 + Cc1cnc(CNC(=O)c2c(=O)c3ccc(N4CCCN(C)CC4)nc3n3c2sc2ccccc23)cn1, which viability, T/C is on record?
Answer: 0.12%

Same assay, conditions: second compound 1 µM; first compound 0.000999 µM; hits give low values; spheroids with HUVEC and MSC

Question: For Cc1[nH]c2ccccc2c1CCNCc1ccc(/C=C/C(=O)NO)cc1 + Cc1cnc(CNC(=O)c2c(=O)c3ccc(N4CCCN(C)CC4)nc3n3c2sc2ccccc23)cn1, which viability, T/C is on record?
Answer: 61.3%

Same assay, conditions: second compound 1 µM; first compound 0.00316 µM; hits give low values; spheroids with HUVEC and MSC

Question: How did the viability, T/C turn out when Cc1[nH]c2ccccc2c1CCNCc1ccc(/C=C/C(=O)NO)cc1 + Cc1cnc(CNC(=O)c2c(=O)c3ccc(N4CCCN(C)CC4)nc3n3c2sc2ccccc23)cn1 was run?
Answer: 63.2%

Same assay, conditions: second compound 1 µM; first compound 0.00999 µM; hits give low values; spheroids with HUVEC and MSC

Question: Which viability, T/C does the source give for Cc1[nH]c2ccccc2c1CCNCc1ccc(/C=C/C(=O)NO)cc1 + Cc1cnc(CNC(=O)c2c(=O)c3ccc(N4CCCN(C)CC4)nc3n3c2sc2ccccc23)cn1 here?
Answer: 61.5%

Same assay, conditions: second compound 1 µM; first compound 0.0316 µM; hits give low values; spheroids with HUVEC and MSC

Question: How did the viability, T/C turn out when C#Cc1c(F)ccc2cc(O)cc(-c3ncc4c(N5CC6CCC(C5)N6)nc(OCC56CCCN5CC(F)C6)nc4c3F)c12 (stereo unspecified) + Cc1cnc(CNC(=O)c2c(=O)c3ccc(N4CCCN(C)CC4)nc3n3c2sc2ccccc23)cn1 was run?
Answer: 36.6%

Question: How did the viability, T/C turn out when C=CCn1c(=O)c2cnc(Nc3ccc(N4CCN(C)CC4)cc3)nc2n1-c1cccc(C(C)(C)O)n1 + Cc1cnc(CNC(=O)c2c(=O)c3ccc(N4CCCN(C)CC4)nc3n3c2sc2ccccc23)cn1 was run?
Answer: 60.9%

Question: How did the viability, T/C turn out when CC(C)(O)C1CCC(Nc2ccc3ncc(-c4cccc(C(F)(F)F)c4)n3n2)CC1 (stereo unspecified) + Cc1cnc(CNC(=O)c2c(=O)c3ccc(N4CCCN(C)CC4)nc3n3c2sc2ccccc23)cn1 was run?
Answer: 76.4%

Question: With Cc1[nH]c2ccccc2c1CCNCc1ccc(/C=C/C(=O)NO)cc1 + Cc1cnc(CNC(=O)c2c(=O)c3ccc(N4CCCN(C)CC4)nc3n3c2sc2ccccc23)cn1 as the compound, how does the viability, T/C read?
Answer: 57.1%

Question: For O=C(NO)c1cnc(N2CCN(S(=O)(=O)c3ccc4ccccc4c3)CC2)nc1 + Cc1cnc(CNC(=O)c2c(=O)c3ccc(N4CCCN(C)CC4)nc3n3c2sc2ccccc23)cn1, which viability, T/C is on record?
Answer: 59.5%

Same assay, conditions: second compound 1 µM; first compound 0.0999 µM; hits give low values; spheroids with HUVEC and MSC

Question: How did the viability, T/C turn out when Cc1[nH]c2ccccc2c1CCNCc1ccc(/C=C/C(=O)NO)cc1 + Cc1cnc(CNC(=O)c2c(=O)c3ccc(N4CCCN(C)CC4)nc3n3c2sc2ccccc23)cn1 was run?
Answer: 27.5%

Same assay, conditions: second compound 1 µM; first compound 0.1 µM; hits give low values; spheroids with HUVEC and MSC

Question: With C#Cc1c(F)ccc2cc(O)cc(-c3ncc4c(N5CC6CCC(C5)N6)nc(OCC56CCCN5CC(F)C6)nc4c3F)c12 (stereo unspecified) + Cc1cnc(CNC(=O)c2c(=O)c3ccc(N4CCCN(C)CC4)nc3n3c2sc2ccccc23)cn1 as the compound, how does the viability, T/C read?
Answer: 24.2%

Question: Which viability, T/C does the source give for C=CCn1c(=O)c2cnc(Nc3ccc(N4CCN(C)CC4)cc3)nc2n1-c1cccc(C(C)(C)O)n1 + Cc1cnc(CNC(=O)c2c(=O)c3ccc(N4CCCN(C)CC4)nc3n3c2sc2ccccc23)cn1 here?
Answer: 59.2%
